Source: ChEMBL document CHEMBL2074379, “Possible involvement of organic anion transporter 2 on the interaction of theophylline with erythromycin in the human liver” (Drug Metab Dispos, 2005)

How the values were obtained:
Type in all cases: functional, cell-based
Settings in all cases: oocyte
[1] = molecular target: T1, Solute carrier family 22 member 7 (Homo sapiens, UniProt Q9Y694); assay: TP_TRANSPORTER: uptake in OAT2-expressing oocytes
T1 sequence (Q9Y694 whole entry): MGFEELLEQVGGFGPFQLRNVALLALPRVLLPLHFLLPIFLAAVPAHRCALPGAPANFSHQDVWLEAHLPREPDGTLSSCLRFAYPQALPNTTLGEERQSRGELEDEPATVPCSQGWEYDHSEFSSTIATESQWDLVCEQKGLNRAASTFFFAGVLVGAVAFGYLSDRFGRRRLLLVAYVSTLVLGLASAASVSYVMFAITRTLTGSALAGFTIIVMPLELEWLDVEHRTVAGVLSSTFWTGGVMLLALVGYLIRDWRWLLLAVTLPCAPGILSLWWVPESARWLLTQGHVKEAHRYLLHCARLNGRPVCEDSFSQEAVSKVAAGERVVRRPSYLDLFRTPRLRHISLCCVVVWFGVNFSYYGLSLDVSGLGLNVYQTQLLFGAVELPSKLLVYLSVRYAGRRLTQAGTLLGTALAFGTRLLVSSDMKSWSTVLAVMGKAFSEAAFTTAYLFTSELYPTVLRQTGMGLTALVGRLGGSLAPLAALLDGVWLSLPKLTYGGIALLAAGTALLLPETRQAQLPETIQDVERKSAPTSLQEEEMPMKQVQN

[2] = molecular target: T1, Solute carrier family 22 member 7; assay: TP_TRANSPORTER: inhibition of erythromycin uptake in OAT2-expressing oocytes
[3] = molecular target: T1, Solute carrier family 22 member 7; assay: TP_TRANSPORTER: inhibition of theophylline uptake in OAT2-expressing oocytes

Structure (SMILES)	Activity [1]	Activity [2]	Activity [3]
Cn1c(=O)c2[nH]cnc2n(C)c1=O.O [THEOPHYLLINE]	substrate []	inhibitor []	
CC[C@H]1OC(=O)[C@H](C)[C@@H](O[C@H]2C[C@@](C)(OC)[C@@H](O)[C@H](C)O2)[C@H](C)[C@@H](O[C@@H]2O[C@H](C)C[C@H](N(C)C)[C@H]2O)[C@](C)(OC)C[C@@H](C)C(=O)[C@H](C)[C@@H](O)[C@]1(C)O [CLARITHROMYCIN]			inhibitor []
CC[C@H]1OC(=O)[C@H](C)[C@@H](O[C@H]2C[C@@](C)(OC)[C@@H](O)[C@H](C)O2)[C@H](C)[C@@H](O[C@@H]2O[C@H](C)C[C@H](N(C)C)[C@H]2O)[C@](C)(O)C[C@@H](C)C(=O)[C@H](C)[C@@H](O)[C@]1(C)O [ERYTHROMYCIN]	substrate []		inhibitor []
